Data published in US20220073536A1 (Rigel Pharmaceuticals, Inc., priority 2003, published 2022).
Structures can show the parent of a compound that is named as a salt.

Tests used:
[1] = test system: cultured human mast cells (CHMC); test: CHMC low cell density IgE activation: tryptase assay; type: cell-based; conditions: IgE activation
Method in brief: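 CHMC at 1000–1500 cells/well were preincubated 1 hr at 37° C., stimulated with anti-IgE for 30 minutes at 37° C., then pelleted. Supernatant tryptase was measured with a fluorogenic substrate after 30 min at room temperature, against un-stimulated control wells.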

[2] = test system: cultured human mast cells (CHMC); test: CHMC low cell density ionomycin activation: tryptase assay; type: cell-based; conditions: read-out: LD Tryptase, CHMC, Iono, 3 pt
[3] = low cell density, 3 pt, read-out: LD Tryptase, CHMC, IgE, 3 pt
[4] = low cell density CHMC, tryptase, 3 pt, read-out: LD Tryptase, CHMC, IgE, 3 pt
[5] = low cell density CHMC, tryptase, 8 pt, read-out: LD Tryptase, CHMC, IgE, 8 pt
[6] = low cell density CHMC, tryptase, 3 pt
[7] = Homo sapiens, Mast cell, low cell density CHMC, tryptase release, 3 pt, read-out: LD Tryptase, CHMC, IgE, 3 pt
[8] = Homo sapiens, Mast cell, low cell density CHMC, tryptase release, 8 pt, read-out: LD Tryptase, CHMC, IgE, 8 pt
[9] = Homo sapiens, Mast cell, low cell density CHMC, tryptase release, 3 pt
[10] = low cell density CHMC, tryptase release, 3 pt, read-out: LD Tryptase, CHMC, IgE, 3 pt
[11] = low cell density CHMC, tryptase release, 8 pt, read-out: LD Tryptase, CHMC, IgE, 8 pt
[12] = low cell density CHMC, tryptase release, 3 pt

Compound | IC50 [1, 7] [µM] | IC50 [1, 8] [µM] | IC50 [2, 9] [µM] | further results
2-Chloro-N4- (3,5-dichloro-4-methoxyphenyl-5-fluoro-N4-methyl-4-pyrimidineamine [Compound 491] |  |  |  | IC50 [1, 3]: > 10 µM; IC50 ([2]; low cell density, 3 pt): > 10 µM
2-Chloro-N4-[3-chloro-4- (N-methylamino)carbonylmethyleneoxyphenyl]-5-fluoro-N4-methyl-4-pyrimidineamine [Compound 661] |  |  |  | IC50 ([1]; low cell density CHMC, tryptase release, 3 point, read-out: LD Tryptase, CHMC, IgE, 3 pt): > 10 µM; IC50 ([2]; low cell density CHMC, tryptase release, 3 point): > 10 µM
5-Fluoro-N4- (4-hydroxy-3,4-dihydro-2H-1-benzopyran-6-yl)-N2-[4- (oxazol-5-yl)phenyl]-2,4-pyrimidinediamine [Compound 1290] |  |  |  | IC50 [1, 4]: < 10 µM; IC50 [1, 5]: < 10 µM; IC50 [2, 6]: > 10 µM
NC1CCOc2ccc(Nc3nc(Nc4cccc(-c5cnco5)c4)ncc3F)cc21 (racemic) [Compound 1292, (R,S)-N4-[4-Amino-3,4-dihydro-2H-1-benzopyran-6-yl]-5-fluoro-N2-[3-(oxazol-5-yl)phenyl]-2,4-pyrimidinediamine] |  |  |  | IC50 [1, 4]: < 10 µM; IC50 [1, 5]: < 10 µM; IC50 [2, 6]: > 10 µM
CNC(=O)CNC(=O)c1ccc(Nc2ncc(F)c(Nc3ccc4c(c3)C(NC(=O)OC(C)(C)C)CCO4)n2)cc1 (racemic) [Compound 1298, (R,S)-N4-[4-(N-tert-Butoxycarbonyl)amino-3,4-dihydro-2H-1-benzopyran-6-yl]-5-fluoro-N2-[4-[N-(N-methylamino)carbonylmethylene]aminocarbonylphenyl]-2,4-pyrimidinediamine] |  |  |  | IC50 [1, 4]: < 10 µM; IC50 [2, 6]: > 10 µM
COc1cc(C)c(Nc2ncc(F)c(Nc3ccc4c(c3)NC(=O)[C@H](C)O4)n2)cc1Cl [Compound 214] | < 10 | < 10 | > 10 | 
COc1cc(OC)c(-c2nc(N)nc(Nc3ccc4c(c3)NC(=O)[C@H](C)O4)c2F)cc1Cl [Compound 215] | < 10 | < 10 | > 10 | 
COc1cc(C)c(Nc2ncc(F)c(Nc3ccc4c(c3)NC(C)(C)CO4)n2)cc1Cl [Compound 216, N2-(3-Chloro-4-methoxy-6-methylphenyl)-N4-(3,4-dihydro-3,3-dimethyl-2H,4H-benz[1,4]oxazin-6-yl)-5-fluoro-2,4-pyrimidinediamine] |  |  |  | IC50 [1, 10]: < 10 µM; IC50 [1, 11]: < 10 µM; IC50 [2, 12]: > 10 µM
Fc1cnc(Nc2cccc(-c3ncco3)c2)nc1Nc1ccc2c(c1)NCCO2 [Compound 217, N4-(3,4-Dihydro-2H,4H-benz[1,4]oxazin-6-yl)-5-fluoro-N2-[3-(oxazol-2-yl)phenyl]-2,4-pyrimidinediamine] |  |  |  | IC50 [1, 10]: < 10 µM; IC50 [1, 11]: < 10 µM; IC50 [2, 12]: > 10 µM
CC1(C)COc2ccc(Nc3nc(Nc4cccc(-c5ncco5)c4)ncc3F)cc2N1 [Compound 218, N4-(3,4-Dihydro-3,3-dimethyl-2H,4H-benz[1,4]oxazin-6-yl)-5-fluoro-N2-[3-(oxazol-2-yl)phenyl]-2,4-pyrimidinediamine] |  |  |  | IC50 [1, 10]: < 10 µM; IC50 [1, 11]: < 10 µM; IC50 [2, 12]: > 10 µM
O=C1COc2ccc(Nc3nc(Nc4cccc(-c5ncco5)c4)ncc3F)cc2N1 [Compound 219] | < 10 | < 10 | > 10 | 
O=C1COc2cc(Nc3nc(Nc4cccc(-c5ncco5)c4)ncc3F)ccc2N1 [Compound 220] | < 10 | < 10 | > 10 | 
O=C1Nc2cc(Nc3nc(Nc4cccc(-c5ncco5)c4)ncc3F)ccc2OC1CCO (stereo not shown) [Compound 221] | < 10 | < 10 | > 10 | 
Fc1cnc(Nc2ccc(-c3cnco3)cc2)nc1Nc1ccc2c(c1)NCCO2 [Compound 222, N4-(3,4-Dihydro-2H,4H-Benz[1,4]oxazin-6-yl)-5-fluoro-N2-[4-(oxazol-5-yl)phenyl]-2,4-pyrimidinediamine] |  |  |  | IC50 [1, 10]: < 10 µM; IC50 [1, 11]: < 10 µM; IC50 [2, 12]: > 10 µM
CC1(C)COc2ccc(Nc3nc(Nc4ccc(-c5cnco5)cc4)ncc3F)cc2N1 [Compound 223, N4-(3,4-Dihydro-3,3-dimethyl-2H,4H-benz[1,4]oxazin-6-yl)-5-fluoro-N2-[4-(oxazol-5-yl)phenyl]-2,4-pyrimidinediamine] |  |  |  | IC50 [1, 10]: < 10 µM; IC50 [1, 11]: < 10 µM; IC50 [2, 12]: > 10 µM
O=C1COc2ccc(Nc3nc(Nc4ccc(-c5cnco5)cc4)ncc3F)cc2N1 [Compound 224] | < 10 | < 10 | > 10 | 
C[C@@H]1Oc2ccc(Nc3nc(Nc4ccc(-c5cnco5)cc4)ncc3F)cc2NC1=O [Compound 225] |  |  |  | IC50 [1, 10]: < 10 µM; IC50 [1, 11]: < 10 µM; IC50 [2, 12]: > 10 µM
O=C1COc2cc(Nc3nc(Nc4ccc(-c5cnco5)cc4)ncc3F)ccc2N1 [Compound 226] | < 10 | < 10 | > 10 | 
O=C1Nc2cc(Nc3nc(Nc4ccc(-c5cnco5)cc4)ncc3F)ccc2OC1CCO (stereo not shown) [Compound 227] | < 10 | < 10 | > 10 | 

Compound | IC50 [1, 7] [µM] | IC50 [1, 8] [µM] | IC50 [2, 9] [µM] | further results
CN1CCOc2ccc(Nc3nc(Nc4ccc(-c5cnco5)cc4)ncc3F)cc21 [Compound 228] | < 10 | < 10 | > 10 | 
CN1CCOc2cc(Nc3nc(Nc4ccc(-c5cnco5)cc4)ncc3F)ccc21 [Compound 229] | < 10 | < 10 | > 10 | 
CN1C(=O)COc2cc(Nc3nc(Nc4ccc(-c5cnco5)cc4)ncc3F)ccc21 [Compound 230] | > 10 | > 10 | > 10 | 
CN1C(=O)COc2ccc(Nc3nc(Nc4ccc(-c5cnco5)cc4)ncc3F)cc21 [Compound 231] | > 10 | > 10 | > 10 | 
Fc1cnc(Nc2cccc(-c3cnco3)c2)nc1Nc1ccc2c(c1)NCCO2 [Compound 232, N4-(3,4-Dihydro-2H,4H-benz[1,4]oxazin-6-yl)-5-fluoro-N2-[3-(oxazol-5-yl)phenyl]-2,4-pyrimidinediamine] |  |  |  | IC50 [1, 10]: < 10 µM; IC50 [1, 11]: < 10 µM; IC50 [2, 12]: > 10 µM
CC1(C)COc2ccc(Nc3nc(Nc4cccc(-c5cnco5)c4)ncc3F)cc2N1 [Compound 233, N4-(3,4-Dihydro-3,3-dimethyl-2H,4H-benz[1,4]oxazin-6-yl)-5-fluoro-N2-[3-(oxazol-5-yl)phenyl]-2,4-pyrimidinediamine] |  |  |  | IC50 [1, 10]: < 10 µM; IC50 [1, 11]: < 10 µM; IC50 [2, 12]: > 10 µM
O=C1COc2cc(Nc3nc(Nc4cccc(-c5cnco5)c4)ncc3F)ccc2N1 [Compound 234] | < 10 | < 10 | > 10 | 
O=C1Nc2cc(Nc3nc(Nc4cccc(-c5cnco5)c4)ncc3F)ccc2OC1CCO (stereo not shown) [Compound 235] | < 10 | < 10 | > 10 | 
CN1CCOc2ccc(Nc3nc(Nc4cccc(-c5cnco5)c4)ncc3F)cc21 [Compound 236] | < 10 |  | > 10 | 
CN1CCOc2cc(Nc3nc(Nc4cccc(-c5cnco5)c4)ncc3F)ccc21 [Compound 237] | < 10 |  | > 10 | 
CC1(C)COc2ccc(Nc3nc(Nc4ccc(-c5ncco5)cc4)ncc3F)cc2N1 [Compound 238, N4-(3,4-Dihydro-3,3-dimethyl-2H,4H-benz[1,4]oxazin-6-yl)-5-fluoro-N2-[4-(oxazol-2-yl)phenyl]-2,4-pyrimidinediamine] |  |  |  | IC50 [1, 10]: < 10 µM; IC50 [1, 11]: < 10 µM; IC50 [2, 12]: > 10 µM
O=C1COc2ccc(Nc3nc(Nc4ccc(-c5ncco5)cc4)ncc3F)cc2N1 [Compound 239] | < 10 | < 10 | > 10 | 
C[C@@H]1Oc2ccc(Nc3nc(Nc4ccc(-c5ncco5)cc4)ncc3F)cc2NC1=O [Compound 240] | < 10 | < 10 | > 10 | 
O=C1COc2cc(Nc3nc(Nc4ccc(-c5ncco5)cc4)ncc3F)ccc2N1 [Compound 241] | > 10 |  | > 10 | 
O=C1Nc2cc(Nc3nc(Nc4ccc(-c5ncco5)cc4)ncc3F)ccc2OC1CCO (stereo not shown) [Compound 242] | < 10 | < 10 | > 10 | 
CN1CCOc2ccc(Nc3nc(Nc4ccc(-c5ncco5)cc4)ncc3F)cc21 [Compound 243, N4-(2,3-Dihydro-4-methyl-2H-benz[1,4]oxazin-6-yl)-5-fluoro-N2-[4-(oxazol-2-yl)phenyl]-2,4-pyrimidinediamine] |  |  |  | IC50 [1, 10]: < 10 µM; IC50 [1, 11]: < 10 µM; IC50 [2, 12]: > 10 µM
CNC(=O)COc1cccc(Nc2ncc(F)c(Nc3ccc4c(n3)NC(=O)C(C)(C)O4)n2)c1 [Compound 992, N4-(2,2-Dimethyl-3-oxo-4H-5-pyrid[1,4]oxazin-6-yl)-5-fluoro-N2-[3-(N-methylamino)carbonylmethyleneoxyphenyl]-2,4-pyrimidinediamine (+)-Camphorsulfonic Acid Salt] |  |  |  | IC50 ([2]; low cell density, 3 pt): > 10 µM
N4-[3,4- (Difluoromethylenedioxy)phenyl]-N2- (3,5-dimethylphenyl)-5-fluoro-2,4-pyrimidinediamine [Compound 563] |  |  |  | IC50 [1, 3]: < 10 µM; IC50 ([1]; low cell density, 8 pt, read-out: LD Tryptase, CHMC, IgE, 8 pt): < 10 µM
N4-[benzoxathiazin-3 (4H)-one-6-yl]2-chloro-5-fluoro-4-pyrimidineamine [Compound 319] |  |  |  | IC50 [1, 10]: < 10 µM
